SMILES strings stand for the structures.

The first assay has as its target T1, human recombinant A3AR (expressed in HEK-293 cells) (Homo sapiens, UniProt P0DMS8).
T1 construct: host or cells: HEK-293 cells
T1 sequence (P0DMS8 1-318): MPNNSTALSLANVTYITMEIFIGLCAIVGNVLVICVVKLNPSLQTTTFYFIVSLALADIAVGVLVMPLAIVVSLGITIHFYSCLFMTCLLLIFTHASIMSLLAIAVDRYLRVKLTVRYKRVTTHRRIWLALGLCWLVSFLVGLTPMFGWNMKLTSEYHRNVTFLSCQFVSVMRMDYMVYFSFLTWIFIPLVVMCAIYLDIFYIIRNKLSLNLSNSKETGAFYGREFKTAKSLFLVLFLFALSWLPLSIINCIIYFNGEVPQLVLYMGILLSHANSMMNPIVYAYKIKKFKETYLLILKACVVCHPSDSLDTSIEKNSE
In words: Adenosine receptors antagonism assay (Eurofins), [125I]-AB-MECA radioligand competition. The conditions noted are these: [125I]-AB-MECA 0.15 nM, r.t., 120 min; IC50 from dose-response curves; read-out: Potency Class A3AR. The assay is classed as binding. A general note: In a radioligand displacement assay an active substance lowers the binding of a labelled ligand.
As to `CC(C)c1nnc2c(NCc3ccc(-c4ccccn4)cc3)cc(N[C@H](CO)[C@@H](C)O)nn12` [compound 107, (2R,3R)-2-[[3-isopropyl-8-[[4-(2-pyridyl)phenyl]methylamino]-[1,2,4]triazolo[4,3-b]pyridazin-6-yl]amino]butane-1,3-diol], the IC50 was 10 to 100 nM. On the same count and under the same terms, the result for `CCC(CC)Nc1cc(Nc2cc(OC)cnn2)c2nnc(C(C)C)n2n1` [compound 162, 3-isopropyl-N8-(5-methoxypyridazin-3-yl)-N6-(pentan-3-yl)-[1,2,4]triazolo[4,3-b]pyridazine-6,8-diamine] reads < 1 nM. Still for that read-out and setting: the result for `CC[C@@H](CO)Nc1cc(NCc2ccc(-c3ccccc3)cc2)c2nnc(C(C)C)n2n1` [compound 102, (2S)-2-[[3-isopropyl-8-[(4-phenylphenyl)methylamino]-[1,2,4]triazolo[4,3-b]pyridazin-6-yl]amino]butan-1-ol] reads 10 to 100 nM; that for `CC(C)c1nnc2c(NCc3ccccn3)cc(NCc3ccccc3)nn12` [compound 56, N6-benzyl-3-isopropyl-N8-(2-pyridylmethyl)-[1,2,4]triazolo[4,3-b]pyridazine-6,8-diamine], 1 to 10 nM.

Regarding `CCOC(=O)Nc1cc(NC(CC)CC)nn2c(C(C)C)nnc12` [compound 99, ethyl N-[6-(1-ethylpropylamino)-3-isopropyl-[1.2.4]triazolo[4,3-b]pyridazin-8-yl]carbamate], the IC50 was in the range of 1 to 10 nM. Same read-out and setting: the result for `CCC(C)Nc1cc(NCc2ccccn2)c2nnc(C3CC3)n2n1` (racemic) [compound 193, N6-(sec-butyl)-3-cyclopropyl-N8-(pyridin-2-ylmethyl)-[1,2,4]triazolo[4,3-b]pyridazine-6,8-diamine] reads 1 to 10 nM; that for `CCC(CC)Nc1cc(NCc2ccccn2)c2nncn2n1` [compound 57, N6-(1-ethylpropyl)-N8-(2-pyridylmethyl)-[1,2,4]triazolo[4,3-b]pyridazine-6,8-diamine], 100 to 1000 nM; that for `CCC(CC)Nc1cc(NC(=O)c2ccccc2)c2nnc(C(C)C)n2n1` [compound 96, N-[6-(1-ethylpropylamino)-3-isopropyl-[1,2,4]triazolo[4,3-b]pyridazin-8-yl]benzamide], 10 to 100 nM.

Consider `CCC(CC)Nc1cc(Nc2ccncn2)c2nnc(C3CC3)n2n1` [compound 177, 3-cyclopropyl-N6-(pentan-3-yl)-N8-(pyrimidin-4-yl)-[1,2,4]triazolo[4,3-b]pyridazine-6,8-diamine], for which the IC50 is < 1 nM. Consider `CCC(CC)Nc1cc(Nc2cccnc2)c2nnc(C3CC3)n2n1` [compound 173, 3-cyclopropyl-N6-(1-ethylpropyl)-N8-(3-pyridyl)-[1,2,4]triazolo[4,3-b]pyridazine-6,8-diamine], for which the IC50 is < 1 nM. For `CCC(CC)Nc1cc(NCc2cncnc2)c2nnc(C(C)C)n2n1` [compound 93, N6-(1-ethylpropyl)-3-isopropyl-N8-(pyrimidin-5-ylmethyl)-[1,2,4]triazolo[4,3-b]pyridazine-6,8-diamine], the IC50 fell in the range of 1 to 10 nM. Consider `CCC(CC)Nc1cc(NCc2cnccn2)c2nnc(C(C)C)n2n1` [compound 94, N6-(1-ethylpropyl)-3-isopropyl-N8-(pyrazin-2-ylmethyl)-[1,2,4]triazolo[4,3-b]pyridazine-6,8-diamine], for which the IC50 fell in the range of 1 to 10 nM. As for `CCC(CC)Nc1cc(NCCCc2ccccn2)c2nnc(C(C)C)n2n1` [compound 89, N6-(1-ethylpropyl)-3-isopropyl-N8-[3-(2-pyridyl)propyl]-[1,2,4]triazolo[4,3-b]pyridazine-6,8-diamine], the IC50 fell in the range of 10 to 100 nM. On the same count and under the same terms, the result for `CC[C@@H](CO)Nc1cc(NCc2ccccc2)c2nnc(C(C)C)n2n1` [compound 2, (2S)-2-[[8-(benzylamino)-3-isopropyl-[1,2,4]triazolo[4,3-b]pyridazin-6-yl]amino]butan-1-ol] reads 10 to 100 nM; that for `CCC(CC)CNc1cc(Nc2cccnn2)c2nnc(C(C)C)n2n1` [compound 147, N6-(2-ethylbutyl)-3-isopropyl-N8-(pyridazin-3-yl)-[1,2,4]triazolo[4,3-b]pyridazine-6,8-diamine], < 1 nM. With `COCCNc1cc(NCCOC)c2nnc(C(C)C)n2n1` [compound 112, 3-isopropyl-N6,N8-bis(2-methoxyethyl)-[1,2,4]triazolo[4,3-b]pyridazine-6,8-diamine], the IC50 fell in the range of 100 to 1000 nM. The same measure, in the same setting: under `CC(C)c1nnc2c(NCc3ccccc3O)cc(NC3CCOCC3)nn12` [compound 44, 2-[[[3-isopropyl-6-(tetrahydropyran-4-ylamino)-[1,2,4]triazolo[4,3-b]pyridazin-8-yl]amino]methyl]phenol] stands 10 to 100 nM; under `CC[C@H](CO)Nc1cc(Nc2ccccn2)c2nnc(C(C)C)n2n1` [compound 163, (2R)-2-[[3-isopropyl-8-(2-pyridylamino)-[1,2,4]triazolo[4,3-b]pyridazin-6-yl]amino]butan-1-ol], 10 to 100 nM. Still for that read-out and setting: the result for `CCC(CC)Nc1cc(Nc2ccccc2)c2nnc(C(C)C)n2n1` [compound 45, N6-(1-ethylpropyl)-3-isopropyl-N8-phenyl-[1,2,4]triazolo[4,3-b]pyridazine-6,8-diamine] reads 1 to 10 nM; that for `c1ccc(CNc2cc(NCC3CC3)nn3c(C4CC4)nnc23)nc1` [compound 203, 3-cyclopropyl-N6-(cyclopropylmethyl)-N8-(pyridin-2-ylmethyl)-[1,2,4]triazolo[4,3-b]pyridazine-6,8-diamine], 10 to 100 nM; that for `CC[C@H](CO)Nc1cc(NCc2ccccc2)c2nnc(C(C)C)n2n1` [compound 1, (2R)-2-[[8-(benzylamino)-3-isopropyl-[1,2,4]triazolo[4,3-b]pyridazin-6-yl]amino]butan-1-ol], 10 to 100 nM.

As for `CCC(CC)CNc1cc(NCCc2cccnc2)c2nnc(C(C)C)n2n1` [compound 166, N6-(2-ethylbutyl)-3-isopropyl-N8-[2-(3-pyridyl)ethyl]-[1,2,4]triazolo[4,3-b]pyridazine-6,8-diamine], the IC50 is 1 to 10 nM. The same measure, in the same setting: under `CC[C@H](CO)Nc1cc(NCc2ccccc2O)c2nnc(C(C)C)n2n1` [compound 38, 2-[[[6-[[(1R)-1-(hydroxymethyl)propyl]amino]-3-isopropyl-[1,2,4]triazolo[4,3-b]pyridazin-8-yl]amino]methyl]phenol] stands 1 to 10 nM. Still for that read-out and setting: the result for `CCC(CC)Nc1cc(NCc2ccc(N)cc2)c2nnc(C(C)C)n2n1` [compound 75, N8-[(4-aminophenyl)methyl]-N6-(1-ethylpropyl)-3-isopropyl-[1,2,4]triazolo[4,3-b]pyridazine-6,8-diamine] reads 1 to 10 nM. `COCCCNc1cc(NCc2ccccc2)c2nnc(C3CC3)n2n1` [compound 31, N8-benzyl-3-cyclopropyl-N6-(3-methoxypropyl)-[1,2,4]triazolo[4,3-b]pyridazine-6,8-diamine]: the IC50 fell in the range of 10 to 100 nM. Take `CCC(CC)Nc1cc(NCc2ccccn2)c2nnc(-c3cccnc3)n2n1` [compound 71, N6-(1-ethylpropyl)-3-(3-pyridyl)-N8-(2-pyridylmethyl)-[1,2,4]triazolo[4,3-b]pyridazine-6,8-diamine]: the IC50 lay in the range of 10 to 100 nM. Same read-out and setting: under `CCC(CC)Nc1cc(Nc2cccnn2)c2nnc(C(C)C)n2n1` [compound 148, 3-isopropyl-N6-(pentan-3-yl)-N8-(pyridazin-3-yl)-[1,2,4]triazolo[4,3-b]pyridazine-6,8-diamine] stands < 1 nM. Same read-out and setting: the result for `CCC(CC)Nc1cc(Nc2cncnc2)c2nnc(C(C)C)n2n1` [compound 151, 3-isopropyl-N6-(pentan-3-yl)-N8-(pyrimidin-5-yl)-[1,2,4]triazolo[4,3-b]pyridazine-6,8-diamine] reads < 1 nM; that for `CC(C)c1nnc2c(NCc3ccccc3)cc(NCCCCO)nn12` [compound 13, 4-[[8-(benzylamino)-3-isopropyl-[1,2,4]triazolo[4,3-b]pyridazin-6-yl]amino]butan-1-ol], 10 to 100 nM. `CCC(CC)Nc1cc(Nc2cc(OC)ccn2)c2nnc(C(C)C)n2n1` [compound 156, 3-isopropyl-N8-(4-methoxypyridin-2-yl)-N6-(pentan-3-yl)-[1,2,4]triazolo[4,3-b]pyridazine-6,8-diamine]: the IC50 was 1 to 10 nM.

As to `CCC(CC)Nc1cc(NCc2ccccn2)c2nnc(C(C)CC)n2n1` (centres unmarked) [compound 67, N6-(1-ethylpropyl)-N8-(2-pyridylmethyl)-3-sec-butyl-[1,2,4]triazolo[4,3-b]pyridazine-6,8-diamine], the IC50 lay within 1 to 10 nM. Take `CCC(CC)Nc1cc(NCc2ccccn2)c2nnc(-c3ccccn3)n2n1` [compound 70, N6-(1-ethylpropyl)-3-(2-pyridyl)-N8-(2-pyridylmethyl)-[1,2,4]triazolo[4,3-b]pyridazine-6,8-diamine]: the IC50 lay in the range of 100 to 1000 nM. Take `CCC(CC)Nc1cc(NCc2ccccc2)c2nnc(C(C)C)n2n1` [compound 18, N8-benzyl-N6-(1-ethylpropyl)-3-isopropyl-[1,2,4]triazolo[4,3-b]pyridazine-6,8-diamine]: the IC50 is 1 to 10 nM. The same measure, in the same setting: the result for `CCC(CC)Nc1cc(NCc2ccccn2)c2nnc(C(CC)CC)n2n1` [compound 68, N6,3-bis(1-ethylpropyl)-N8-(2-pyridylmethyl)-[1,2,4]triazolo[4,3-b]pyridazine-6,8-diamine] reads 1 to 10 nM.

The assay is the same for the next values; noted with them: read-out: Potency Class A3AR; [125I]-AB-MECA 0.15 nM, r.t., 120 min; IC50 from dose-response curves.
For the compound `CCC(CC)Nc1cc(NC(=O)Cc2cccnc2)c2nnc(C(C)C)n2n1` [compound 168, N-[6-(1-ethylpropylamino)-3-isopropyl-[1.2.4]triazolo[4,3-b]pyridazin-8-yl]-2-(3-pyridyl)acetamide], the IC50 was < 1 nM.

For the origin of these results see patent EP4477653A1 (Perha Pharmaceuticals, priority 2023, dated 2024).
